Where two headings read alike, the source gives them in different places.
Assays:
spleen cells = experiment: Mitogen activity (3H-thymidine incorporation in spleen cells); assay type: cell-based, C3H/HeN mice; details: 48 hours culture, given concentration
Experimental: The mitogen activity of the compounds according to the present invention was evaluated by utilizing the following experimental system [see Eur. J. Immunol., 14, 109-114. (1984)].
The spleens of C3H/HeN mice (males, 6-10-weeks old) were isolated in an aseptic manner. The spleen tissue was loosened in Dulbecco's modified Eagle medium (DMEM) and then subjected to a stainless mesh in order to filter the spleen cells. Next, erythrocytes contained in the collected cells were hemolyzed, and the obtained cells were suspended in RPMI 1640 medium containing 5% FBS for subsequent use.
Evaluation of mitogenic activity of the compounds according to the present invention was conducted by measuring the amount of ^3 H-thymidine incorporated into the cells during culturing of the cells which were treated with the compounds according to the present invention. First, the spleen cells were transferred to a 96-well plate at 5×10^5 cells/well (100 μl). To each well, the compound according to the present invention at a given concentration (100 μl) was added, and the obtained solution in each well was cultured under 5% CO2 at 37° C. for 48 hours. After that, ^3 H-thymidine was added at 1 μCi/well (50 μl), followed by culturing for four hours. The obtained cells were washed with phosphate buffered saline (PBS), and the amount of ^3 H-thymidine incorporated into the cells (the amount of radioactivity) was determined using a liquid scintillation counter. The result was shown by calculating the following Stimulation Index: [formula]

[1] = test system: colony stimulating factor (CSF); experiment: Colony stimulating factor (CSF)-inducing activity; assay type: in vivo, C57BL mice; details: 5 μg caudal vein, serum after six hours, colonies after seven days
Experimental: By utilizing the following experimental protocol, in vivo colony stimulating factor (CSF) inducing activity of the compounds according to the present invention was evaluated [see Immunology, 21, 427-436. (1971)].
5 μg of the present compounds according to the present invention were administered to the caudal vein of C57BL mice (male, 8-10-weeks old). After six hours, the blood was sampled from the plexus venous orbitalis of said mice. This blood was allowed to stand at 4° C. for two hours for sufficient coagulation, and then centrifuged at 1500×g. The resultant supernatant solution was collected for use as a CSF-containing serum sample.
Separately, from the femora of mice which were the same series as the mice used for sampling the serum, the bone marrow cells were sampled. Specifically, both ends of the femora isolated in an aseptic manner were cut, and an injection needle was inserted into one end to aspirate the bone marrow cells into a culture solution (DMEM). The obtained cell suspension was sufficiently stirred, washed with the culture solution several times, and suspended in the culture solution again.
Next, the cell culture prepared as described was adjusted to a final concentration of 10^5 cells/ml by utilizing a medium (DMEM) containing 0.3% agar, 25% horse serum, and 50 μM 2-mercaptoethanol. To this solution, 0.1 ml of said serum sample which had been diluted to 1/3 with said DMEM medium was added, and the obtained solution was transferred to a culture plate of 35 mm diameter. Then, the resultant culture solution was cultured under 7% CO2 at 37° C. for seven days to form colonies. Colonies as containing at least 20 unseparated cells were counted, and the numbers thus obtained were taken as indicating the CSF inducing activity of the compounds according to the present invention.

TNF = experiment: TNF-producing activity; assay type: in vivo, ICR mice; details: 10 μg/mice i.v., serum at 90 minutes, Corynebacterium parvum-primed, L929 cytotoxicity assay
Experimental: TNF-producing activity was evaluated utilizing the following experimental system.
The first stimulating agent, 5% Corynebacterium parvum suspension (0.2 ml physiological saline solution), was intravenously administered to ICR mice (female, 6-7 week-aged). Nine days later, the second stimulating agent, the compound of the present invention, was intravenously administered to the same mice at 10 μg/mice. In 90 minutes, 0.5-1 ml of blood was taken from the retro orbital plexus. The obtained blood was allowed to clot at room temperature for five to six hours, and centrifuged at 7200×g for five minutes to separate the serum. The obtained serum was incubated at 56° C. for 30 minutes for inactivation before use in the following experiment.
TNF activity in the serum was measured via a cytotoxicity assay employing L929 cells. […] After 48 hours incubation at 37° C., the viable cells were fixed with methanol. These cells were then stained with 0.2% crystal violet, and the dye was extracted with 1% SDS (sodium dodecyl sulphate). Next, the absorbance at 550 nm was measured. Finally, the cytotoxicity ratio (%) was calculated according to the following formula, and the reciprocal of the dilution of the serum showing 50% cytotoxicity was determined for the TNF titer in the serum (U/ml).
[OD550 (medium alone) - OD550 (serum obtained by
administering compounds of the invention)] ×

[2] = Lethal toxicity in galactosamine-sensitized mice; assay type: in vivo, C57BL mice; details: galactosamine-sensitized mice; intravenous; D-galactosamine/HCl 10 mg/mouse intraperitoneally; observed to seventh day; read-out: LD50 (galactosamine load)
Experimental: (§1) Lethal toxicity in galactosamine-sensitized mice was evaluated by utilizing the following experimental system [see J. Biochem., 98, 395-406. (1985)].
(§2) To C57BL mice (male, 7-weeks old), 10 mg/mouse of D-galactosamine/HCl was intraperitoneally administered. Immediately after that, the compound of this invention was intravenously administered. After these administrations, the general condition of the mice were observed every one hour for seven hours, and every day from the following day to the seventh day.

neutrophils = experiment: O2^- production stimulating activity in neutrophils; assay type: cell-based, C3H/HeN mice; details: 10 μg/ml, 37° C., 60 minutes, FMLP 0.1 μM; for activation at 10 µg/mL: Mus musculus, Neutrophil, 1 h, read-out: Stimulation (%), O2^- production stimulating activity
Experimental: O2^- - production stimulating activity in neutrophils was evaluated utilizing the following experimental system [see J. Exp. Med., 160, 1656-1671. (1984)]. To the peritoneal cavity of C3H/HeN mice (male, 8-9 weeks old), physiological saline containing 0.2% (w/v) casein was administered. Three hours later, peritoneal exudate cells (90% or more of which are neutrophils) were collected. These cells (1.7×10^6 cells/ml/tube) were incubated in the presence of the compound (10 μg/ml) according to the present invention at 37° C. for 60 minutes. After addition of 80 μM of cytochrome C and 0.1 μM of formyl-methionyl-leucylphenylalanine (FMLP), the mixture was incubated in the presence of or in the absence of superoxide dismutase (SOD) at 37° C. for 10 minutes. Then, SOD-inhibitable cytochrome C reduction was estimated from the difference between the absorbances at 550 nm and 541.7 nm, and from the molar absorption coefficient (16.5×10^3).O2^- production-stimulating activity in terms of Stimulation % was calculated according to the following formula: [formula]

[3] = test system: galactosamine-sensitized mice; experiment: Lethal toxicity in galactosamine-sensitized mice; assay type: in vivo, C57BL mice; details: intravenous; D-galactosamine/HCl 10 mg/mouse intraperitoneally; observed to seventh day; 10080 min
Experimental: as §1, §2

SMILES | Stimulation Index (spleen cells; Experiment 1) | Stimulation Index (spleen cells; Experiment 2) | The Number of Colony Formed/The number of Bone Marrow Cells (10^5) ([1]; Experiment 1) | The Number of Colony Formed/The number of Bone Marrow Cells (10^5) ([1]; Experiment 2) | The Amount of TNF in the Serum (TNF; Experiment 1) [U/ml] | The Amount of TNF in the Serum (TNF; Experiment 2) [U/ml] | LD50 at 168 h [2] [mg/kg] | Stimulation (%), O2^- production stimulating activity (neutrophils; Experiment 2) [%] | activation at 10 µg/mL (neutrophils; Experiment 1) [%] | activation at 10 µg/mL (neutrophils; Experiment 2) [%] | LD50 (galactosamine load) [3] [mg/kg]
CCCCCCCCCCCCCC(=O)O[C@H](CCCCCCCCCCC)CC(=O)O[C@H]1[C@H](OP(=O)(O)O)[C@@H](CO)OC(O)[C@@H]1NC(=O)C[C@H](O)CCCCCCCCCCC (stereo partly drawn) [Control, 2-deoxy-2[(3R)-3-hydroxytetradecanamide]-4-O-phosphono-3-O-[(3R)-3-tetradecanoyloxytetradecanoyl]-D-glucopyranose] | 15.8 | 8.4 | 89 Colony Formed/10^5 Bone Marrow | 53 Colony Formed/10^5 Bone Marrow | 158000 | 80000 | 0.003 | 60 | 60 | – | –
CCCCCCCCCCCCCC(=O)O[C@H](CCCCCCCCCCCC)C(=O)O[C@H]1[C@@H]2OP(=O)(O)OC[C@H]2OC[C@@H]1NC(=O)C[C@H](O)CCCCCCCCCCC [Example 1, 1,5-Anhydro-2-deoxy-4,6-O-hydroxyphosphoryl-2-{(3R)-3-hydroxytetradecanamido}-3-O-{(2R)-2-tetradecanoyloxytetradecanoyl}-D-glucitol] | 32.1 | – | 153 Colony Formed/10^5 Bone Marrow | – | 133000 | – | 0.0313 | – | 55 | – | –
CCCCCCCCCCCCCCC(OC(=O)CCCCCCCCCCC)C(=O)O[C@H]1[C@@H]2OP(=O)(O)OC[C@H]2OC[C@@H]1NC(=O)C[C@H](O)CCCCCCCCC (stereo partly drawn) [Example 2, 1,5-Anhydro-2-deoxy-3-O-{(2RS)-2-dodecanoyloxyhexadecanoyl}-2-{(3R)-3-hydroxydodecanamido}-4,6-O-hydroxyphosphoryl-D-glucitol] | – | – | – | – | – | 102000 | – | – | – | – | –
CCCCCCCCCCCCCCC(CCCCCCCCCCCC)C(=O)O[C@H]1[C@@H]2OP(=O)(O)OC[C@H]2OC[C@@H]1NC(=O)C[C@H](O)CCCCCCCCCCC (stereo partly drawn) [Example 4, 1,5-Anhydro-2-deoxy-3-O-{(2RS)-2-dodecylhexadecanoyl}-4,6-O-hydroxyphosphoryl-2-{(3R)-3-hydroxytetradecanamido}-D-glucitol] | – | 20.7 | – | 66 Colony Formed/10^5 Bone Marrow | – | – | 0.0711 | – | – | 55 | –
CCCCCCCCCCCCCC(=O)O[C@H](CCCCCCCCCCC)CC(=O)O[C@@H]1[C@@H](NC(=O)C[C@@H](CCCCCCCCCCC)OC(=O)CCCCCCCCCCC)[C@H](OC[C@H]2O[C@H](OP(=O)(O)O)[C@H](NC(=O)C[C@H](O)CCCCCCCCCCC)[C@@H](OC(=O)C[C@H](O)CCCCCCCCCCC)[C@@H]2O)O[C@H](CO)[C@H]1OP(=O)(O)O [Lipid A] | – | – | – | – | – | – | – | – | – | – | 0.0003
